Data published in the supplement of paper PMC8837787.

Test system: Saccharomyces cerevisiae ABC16-Green Monster
Test: growth inhibition at single dose (up to 150 µM), below the 70% cut-off for dose-response; higher = more potent
Conditions: 18 h; 30 °C; YPD
Procedure, shortened: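 Values are percent growth inhibition of drug-sensitive S. cerevisiae ABC16-Green Monster cells. Cells grown overnight in YPD at 30 °C were diluted to log phase (OD600 0.1–0.2), and each library compound was added at a single dose of 150 µM to 200 µl culture per well in 96-well plates, in biological duplicates, beside untreated cultures. OD600 was read at 0 h and after 18 h at 30 °C, and compounds under 70% in both replicates were not taken to dose-response.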

Structure (SMILES) | growth inhibition at single dose [%]
COC(=O)c1c(C)[nH]c(C(=O)Nc2ccc(C)cn2)c1C | < 70
c1cncc(NCc2ccc(-c3cc4ccncc4cc3OC3CCNCC3)s2)c1 | < 70
COc1ccc2c(c1)C1(Nc3ccccc3-c3nc4ccccc4n31)C(=O)N2 (configuration not stated) | < 70
c1ccc2cc(OCCNc3ncnc4sccc34)ccc2c1 | < 70
CN(C)CC(C)(C)CNc1nn2cc(-c3ccccc3)nc2s1 | < 70
O=c1cc(CN2CCCCCC2)nc2sccn12 | < 70
CC(=O)Nc1ccc(-c2noc(CC3CCCN(Cc4cccc(F)c4C)C3)n2)cc1 (configuration not stated) | < 70
CC[n+]1ccccc1/C=C/c1ccc(N(C)C)cc1 | < 70
O=C(Nc1cnc2ccccc2c1)c1cccc(NC(=O)c2cccs2)c1 | < 70
O=C(Nc1cccc2c[nH]nc12)c1cnc(OCC(F)(F)F)c(Cl)c1 | < 70
Cc1ccc(Nc2nccc(C(F)(F)F)n2)cc1S(=O)(=O)N(C)C | < 70
Cc1c(C)n(CCCO)c2ncn3nc(-c4ccc(F)cc4)nc3c12 | < 70
Cc1c(-c2ccccc2)sc2[nH]c(CC(N)=O)nc(=O)c12 | < 70
O=C(Nc1ccccc1)c1ccc(CN2CCN(CCOc3ccccc3)CC2)cc1 | < 70
CCCCN1C(=O)C(=O)N(CC(=O)Nc2sc(Cc3ccc4c(c3)OCO4)c(C)c2C(=O)OCC)C1=O | < 70
CCOC(=O)c1c(C)[nH]c(C(=O)Nc2cccc(C)n2)c1C | < 70
COc1cc(SC)ccc1C(=O)N1CCCC(C)C1 (configuration not stated) | < 70
S=c1n(CN2CCN(c3ccccc3Cl)CC2)nc(-c2cccs2)n1Cc1ccccc1 | < 70
CN(CC(=O)NC1CC1)C(=O)CNc1ccccc1Oc1ccccc1 | < 70
COc1ccc(C=C2SC(Nc3ccc(F)cc3)=NC2=O)c(OC)c1 | < 70
COc1ccc(N2CCN(C(CNC(=O)C3CCCCC3)c3ccc4c(c3)OCO4)CC2)cc1 (configuration not stated) | < 70

Structure (SMILES) | growth inhibition at single dose [%]
Cc1cc(/C=C/C(=O)Nc2nccs2)c(C)n1-c1ccccc1 | < 70
C/N=c1\scc(-c2ccco2)n1/N=C/c1sccc1C | < 70
Cc1cc2nc(NC(=O)C(C)(C)C)nc(Cl)c2n1Cc1ccc(Cl)cc1 | < 70
COc1ccc2c(c1)CCCN2C(=O)c1occc1C | < 70
CC(=O)NCCCc1ccc(C(=O)COC(=O)c2ccccc2-n2cnnn2)cc1 | < 70
Clc1ccc2c(N3CCCC3)ccnc2c1 | < 70
COc1ccc(N2CCN(C(CNC(=O)CC(C)(C)C)c3ccc4c(c3)OCO4)CC2)cc1 (configuration not stated) | < 70
CCOc1cccc(C(=O)Nc2ccc(-c3nc4ccccc4[nH]3)cc2)c1 | < 70
CNc1nnc(Sc2ncnc3ccsc23)s1 | < 70
CN(C)CCCNc1c2ccccc2nc2ccccc12 | < 70
CCOC(=O)C1=CN(C)C=C(C(=O)OCC)C1c1cc(Br)c(OCC)c(OC)c1 | < 70
Cc1ccc(C)c(S(=O)(=O)N2CCN(C(=O)c3[nH]nc4ccccc34)CC2)c1 | < 70
Cc1nc2ccccn2c1C(=O)NCc1ccc(Cl)cc1 | < 70
Brc1cnc2nc(-c3ccccc3)[nH]c2c1 | < 70
Oc1c2c(nc3ccccc13)CCCC2 | < 70
Cc1nn(C)c(C)c1CC(=O)Nc1ccc(-n2cnc3ccccc32)cc1 | < 70
COc1ccccc1N1CCN(C(CNS(=O)(=O)c2ccc(Cl)cc2)c2cccnc2)CC1 (configuration not stated) | < 70
Cc1ccc2nc(C)cc(Nc3cccc(C(F)(F)F)c3)c2c1 | < 70
CCOC(=O)c1ccc(N2CCN(C(C)c3nc(C(C)C)no3)CC2)nc1 (configuration not stated) | < 70
N#CCNC(=O)c1ccc(-c2ccnc(Nc3ccc(N4CCOCC4)cc3)n2)cc1 [Momelotinib] | < 70
N#CC(C(=O)c1cc(S(=O)(=O)N2CCc3ccccc3C2)ccc1Cl)c1ccccn1 (configuration not stated) | < 70

Structure (SMILES) | growth inhibition at single dose [%]
CN1CCN(CCCOc2ncc(Nc3ncc(-c4ccc(C(F)(F)F)c(F)c4)nc3C(N)=O)cn2)CC1 | < 70
FC(F)(F)c1nnc2ccc(Cl)nn12 | < 70
Cc1ccccc1C(=O)OCC(=O)c1cc(C)n(Cc2ccco2)c1C | < 70
O=C(NC1CCN(Cc2ccccc2)CC1)c1cc(-c2cccnc2)nc2ccc(Cl)cc12 | < 70
Cc1ccc(OCCCCCCNCCO)c(C)c1 | < 70
O=C1[C@@H](Oc2ccccc2)[C@@H](c2ccc(Cl)cc2)N1CCn1cnc2c(NCc3ccccc3)ncnc21 | < 70
COc1ccc(-c2cc3c(nn2)-c2ccccc2C3=O)cc1 | < 70
CCOc1cc2c(cc1CNC(=O)c1cnc3cc(C)nn3c1C)OC(C)C2 (configuration not stated) | < 70
CCOC(=O)c1c(C)[nH]c(C(=O)Nc2ncccc2C)c1C | < 70
COc1ccc(C2=NCCN2)cc1-c1cn(-c2cccc(C3=NCCN3)c2)nn1 | < 70
CCOc1ccc(Nc2c3ccccc3nc3ccccc23)cc1 | < 70
CCC(C)NCC(O)(c1ccc(Cl)cc1)c1ccc(Cl)cc1 (configuration not stated) | < 70
c1ccc(C2=Nc3ccccc3N=C(c3ccccc3)c3ccccc32)cc1 | < 70
OC(c1cn2cc(-c3ccc(F)cc3)nc2s1)(C(F)(F)F)C(F)(F)F | < 70
O=C(Nc1ccc(C23CC4CC(CC(c5ccccc5)(C4)C2)C3)cc1)c1cccs1 | < 70
COc1cc(CN2CCC3(C=Cc4ccccc43)CC2)cc2c1OCO2 | < 70
Cc1ccccc1-n1c(SCC(=O)NC2CCCCC2)nc(O)cc1=O | < 70
CC(=O)c1cc2c(N)c(-c3nc(C(C)(C)C)no3)sc2nc1C | < 70
CCN(CC)CCCN1CCN(C(=O)c2cccc(-c3noc(C(F)(F)F)n3)c2)CC1 | < 70
CNC(=O)CNc1nc(-c2ccccn2)nc2scc(-c3ccccc3)c12 | < 70
